Entries after “also recorded” stand apart in the source; their conditions may differ.
Key:
Type in all cases: cell-based
[1] = test system: 143B WT cybrid and 143B CytB cells; test: Mitochondrial oxygen consumption (Seahorse XF24), cybrid cells; conditions: presence or absence of the substance
Procedure: Oxygen consumption rates were determined on a Seahorse Bioscience Extracellular Flux Analyzer (XF24). Cells were plated in Seahorse Bioscience 24 well plates at 6E4 cells per well in 100 μL complete DMEM, allowed to attach for 1 hour, and 500 μl complete DMEM was added before overnight incubation. The following day cells were washed 2 times in assay media: DMEM without phenol red or pyruvate containing 0.5% dialyzed FBS and 0.1 mg/mL uridine at pH 7.4 and incubated in 500 μL of the same media for the assay. Oxygen consumption measurements were compared either, between basal measurements and following injection of the compound (AKB, rotenone, antimycin), or between wells cultured overnight in their treatment conditions (aspartate, oligomycin, FCCP). The latter conditions were used due to solubility constraints (aspartate) or kinetic constraints of the compound (oligomycin). These measurements were then subtracted from oxygen consumption measurements following addition of high dose rotenone and antimycin treatment (2 μM each) to determine the mitochondria specific oxygen consumption rate. Following measurements, the number of cells in the wells was counted, averaged for each treatment condition, and the mitochondrial oxygen consumption rates were normalized to 1E5 cells.

143B CytB cells [2] = test: Proliferation assay of respiration-incompetent 143B CytB cybrid cells; conditions: for Proliferation rate of 143B CytB cells: media supplemented with the substance, no pyruvate unless tested, uridine present
Procedure: FL5.12 cells were cultured in the same medium and supplemented with 5 μg/mL recombinant mouse IL-3 (R&D Systems). […] All cells incubated at 37° C. with 5% CO2.
Adherent cell lines growing in log phase were trypsinized, counted, and plated onto 6 well dishes (Corning) in 2 mL complete DMEM and incubated overnight. […] The following day, one plate of cells was counted to determine the initial cell count at the time of treatment. Cells were washed 2 times with 2 mL phosphate buffered saline (PBS) and 4 mL media premixed with the indicated treatments was added. FL5.12 cells, a suspension cell line, were washed 2 times in PBS and added directly to media containing the indicated treatments and 5 μg/mL recombinant mouse IL-3. Proliferation rate assay media was DMEM without pyruvate containing 10% dialyzed FBS, penicillin-streptomycin, and 0.1 mg/mL uridine, unless otherwise noted. […] Cells were counted using Cellometer Auto T4 Plus Cell Counter (Nexcelom Bioscience). Proliferation rate was determined using the following formula: Proliferation Rate (Doublings per day)=(log2(Final cell count (day 5)/Initial cell count (day 1))/4 (days)

143B cells = test: Proliferation assay of wild-type 143B cells treated with respiration inhibitors; conditions: for Proliferation of respiration-inhibited 143B cells with supplementation: rotenone, phenformin, antimycin, myxothiazol, azide or oligomycin plus the substance; for Proliferation of rotenone treated 143B cells: wide range of rotenone doses, 1 mM AKB or 20 mM aspartate, 4 days
Procedure: (§1) 143B, A172, H1299, HeLa, U87 and MEF cells were cultured in Dulbecco's Modified Eagle's Medium (DMEM) (Gibco) supplemented with 10% fetal bovine serum (FBS) and penicillin-streptomycin. FL5.12 cells were cultured in the same medium and supplemented with 5 μg/mL recombinant mouse IL-3 (R&D Systems). 143B cybrid cell lines (WT Cybrid and CytB) were cultured in DMEM with 10% FBS, penicillin-streptomycin, and 0.1 mg/mL uridine. All cells incubated at 37° C. with 5% CO2.
(§2) Adherent cell lines growing in log phase were trypsinized, counted, and plated onto 6 well dishes (Corning) in 2 mL complete DMEM and incubated overnight. Initial seeding density was 2E4 cells per well for 143B, A172, H1299, HeLa, 143B WT Cybrid, and MEFs and 3E4 cells for 143B CytB and U87 cells. The following day, one plate of cells was counted to determine the initial cell count at the time of treatment. Cells were washed 2 times with 2 mL phosphate buffered saline (PBS) and 4 mL media premixed with the indicated treatments was added. FL5.12 cells, a suspension cell line, were washed 2 times in PBS and added directly to media containing the indicated treatments and 5 μg/mL recombinant mouse IL-3. Proliferation rate assay media was DMEM without pyruvate containing 10% dialyzed FBS, penicillin-streptomycin, and 0.1 mg/mL uridine, unless otherwise noted. For these cell lines at these seeding densities it was determined that for 4 days the cells maintained logarithmic proliferation (data not shown), therefore final cell counts were measured 4 days after treatment. Cells were counted using Cellometer Auto T4 Plus Cell Counter (Nexcelom Bioscience). Proliferation rate was determined using the following formula: Proliferation Rate (Doublings per day)=(log2(Final cell count (day 5)/Initial cell count (day 1))/4 (days)

143B WT cybrid cells = test: Proliferation assay of respiration-competent 143B WT cybrid cells; conditions: presence or absence of the substance
Procedure: as §1, §2

143B CytB cells [3] = test: Measurement of NAD+/NADH (NAD/NADH Glo) in 143B CytB cells; conditions: absence or presence of the substance
Procedure: NAD^+/NADH measurements were done using a modified version of manufacturer instructions of NAD/NADH Glo Assay (Promega). Cells were plated and treated as for proliferation assays and cell extracts were taken 6 hours after treatment. For extraction, cells were quickly washed 3 times in ice cold PBS, extracted in 100 μL ice cold lysis buffer (1% Dodecyltrimethylammonium bromide (DTAB) in 0.2 N NaOH diluted 1:1 with PBS), and immediately frozen at −80° C. To measure NADH, 20 μL of sample was moved to PCR tubes and incubated at 75° C. for 30 min, where the basic conditions will selectively degrade NAD^+. To measure NAD^+, 20 μL of the samples was moved to PCR tubes containing 20 μL lysis buffer and 20 μL 0.4 N HCl and incubated at 60° C. for 15 min, where acidic conditions will degrade NADH. Following incubations, samples were allowed to equilibrate to room temperature and then quenched by neutralizing with 20 μL 0.25 M Tris in 0.2 N HCl (NADH) or 20 μL 0.5 M Tris base (NAD^+). Manufacturer instructions were followed thereafter to measure NAD^+/NADH.

| SMILES | Mitochondrial oxygen consumption rate [1] | Cell permeability (143B CytB cells [2]; inferred from supra-physiological doses required to restore growth) | Proliferation rate of 143B CytB cells (143B CytB cells [2]) | Proliferation of respiration-inhibited 143B cells with supplementation (143B cells) | Proliferation of rotenone treated 143B cells (143B cells) | Proliferation rate of 143B WT cybrid cells (143B WT cybrid cells) | Cellular NAD+/NADH ratio (143B CytB cells [3]) | Uridine auxotrophy of 143B CytB cells (143B CytB cells [2]; AKB in the presence or absence of uridine) |
| --- | --- | --- | --- | --- | --- | --- | --- | --- |
| N[C@@H](CC(=O)O)C(=O)O [aspartate] | neither increased mitochondrial oxygen consumption | nearly impermeable to cells | capable of supporting exponential growth of 143B CytB cells | Proliferation was restored in response to all ETC inhibitors | restore proliferation in 143B cells over a wide range of rotenone doses | did not have gross proliferation differences | nor did it affect the NAD^+/NADH ratio |  |
| CC(=O)C(=O)O [pyruvate] |  |  | divide at a similar rate |  |  | divide at a similar rate; also recorded: does not impact proliferation of 143B WT cybrids | sufficient to increase the cellular NAD^+/NADH ratio |  |
| CCC(=O)C(=O)O [AKB, α-ketobutyrate] | does not alter oxygen consumption |  | rescued proliferation rate of 143B CytB cells to levels similar to what was observed with pyruvate addition | rescued proliferation, with proliferation rates comparable to that observed in untreated cells | restore proliferation in 143B cells over a wide range of rotenone doses | does not impact proliferation of 143B WT cybrids | sufficient to increase the cellular NAD^+/NADH ratio | does not alleviate uridine auxotrophy of 143B CytB cells |

Source: patent US10123985B2, “Therapeutic strategies for treating mitochondrial disorders” (Whitehead Institute for Biomedical Research, priority 2015, dated 2018)
